Measured values: patent US7323481B2, “Thiazolidinediones alone or in combination with other therapeutic agents for inhibiting or reducing tumour growth” (Hoffmann-La Roche Inc., priority 2001, dated 2008)

What was measured:
PPAR gamma = molecular target: T1, PPAR gamma (Homo sapiens, UniProt P37231); test: PPAR gamma stimulating activity (PPAR-mediated gene expression), alone and with 9-cis retinoic acid; type: cell-based; conditions: DMSO-treated cells = 1
T1 sequence (P37231 1-505): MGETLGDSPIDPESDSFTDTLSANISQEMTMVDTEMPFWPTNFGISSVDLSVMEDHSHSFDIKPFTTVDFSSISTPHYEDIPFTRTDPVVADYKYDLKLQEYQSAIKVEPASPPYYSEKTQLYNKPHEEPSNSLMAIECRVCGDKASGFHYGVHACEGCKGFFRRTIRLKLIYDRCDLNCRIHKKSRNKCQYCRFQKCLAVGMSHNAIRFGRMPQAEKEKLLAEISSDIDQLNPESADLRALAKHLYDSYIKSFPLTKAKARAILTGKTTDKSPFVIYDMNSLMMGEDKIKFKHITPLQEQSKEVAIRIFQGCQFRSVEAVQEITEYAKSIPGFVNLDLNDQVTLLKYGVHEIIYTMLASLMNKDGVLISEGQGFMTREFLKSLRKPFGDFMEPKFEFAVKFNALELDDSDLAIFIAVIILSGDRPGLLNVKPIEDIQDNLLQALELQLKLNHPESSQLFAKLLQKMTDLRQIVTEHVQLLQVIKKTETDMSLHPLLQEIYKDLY
Description: (§1) Female SCID beige mice were inoculated subcutaneously with 1×10^6 CX-1 human colon carcinoma cells. For 42 days 10 animals per group were orally treated with troglitazone, BM 13.1258 or BM 15.2054 (suspension in 0.5% methylcellulose). The development of tumor volume (measured in mm^3) was determined on day 45. Furthermore, following autopsy the lungs were histologically inspected for micrometastases. Inhibition of tumor growth and inhibition of number of pulmonal metastases were calculated as 100 minus tumor volume or number of metastases of the test group divided by that of the vehicle group expressed as a percentage. PPAR gamma stimulating activity of the compounds alone and in combination with the RXR specific agonist 9-cis retinoic acid were determined in accordance with a known method (Furnsinn, C., et al., Br. J. Pharmacol. 128 (1999) 1141-1148). The relative activation of PPAR-mediated gene expression is given as x-fold stimulation compared to DMSO-treated cells (activation=1).

[1] = test system: CX-1 human colon carcinoma cells; test: CX-1 human colon carcinoma xenograft in SCID beige mice: tumor volume and pulmonal micrometastases; type: in vivo; conditions: for Inhibition relative to vehicle group (tumor volume): day 45; for Mean tumor volume: measured on day 45; for Number of metastases: lung micrometastases per group, histology after autopsy; for Effect on metastatic load: human xenograft models
Description: as §1

[2] = test system: human cancer cells (breast cancer, colon cancer, prostate cancer); test: Inhibition of cell proliferation in human cancer cells; type: cell-based; conditions: human cancer cells of various tissue origins, e.g. breast, colon and prostate cancer
[3] = thiazolidinedione 10^−6 M in combination with 9-cis RA 10^−6 M
[4] = thiazolidinedione 10^−6 M, no 9-cis RA
[5] = thiazolidinedione 10^−7 M in combination with 9-cis RA 10^−6 M
[6] = thiazolidinedione 10^−7 M, no 9-cis RA

CC1=C(/C=C/C(C)=C\C=C\C(C)=C\C(=O)O)C(C)(C)CCC1 [9-cis RA, 9-cis retinoic acid, reference compound]
Relative activation of PPAR-mediated gene expression (PPAR gamma; 9-cis RA 10^−6 M, no thiazolidinedione): 4.1 x-fold

Cc1oc(-c2cccs2)nc1CCOc1ccc(CC2SC(=O)NC2=O)c2sccc12 (stereo not drawn) [BM 15.2054, 5-{4-[2-(5-Methyl-2-(thien-2-yl)oxazol-4-yl)-ethoxy]-benzo[b]thiophen-7-ylmethyl}-thiazolidine-2,4-dione]
Inhibition relative to vehicle group (number of metastases) ([1]; 10 mg/kg oral for 42 days): 34%
Inhibition relative to vehicle group (tumor volume) ([1]; 10 mg/kg oral for 42 days): 30%
Mean tumor volume ([1]; 10 mg/kg oral for 42 days): 702 mm^3
Number of metastases ([1]; 10 mg/kg oral for 42 days): 216
Inhibition relative to vehicle group (number of metastases) ([1]; 50 mg/kg oral for 42 days): 32%
Inhibition relative to vehicle group (tumor volume) ([1]; 50 mg/kg oral for 42 days): 28%
Mean tumor volume ([1]; 50 mg/kg oral for 42 days): 719 mm^3
Number of metastases ([1]; 50 mg/kg oral for 42 days): 223
Number of lung metastases compared to the vehicle group ([1]; Table 2): significantly (p<0.05) reduced
Effect on metastatic load [1]: reduce the metastatic load
Relative activation of PPAR-mediated gene expression (PPAR gamma; [3]): 18.5 x-fold
Relative activation of PPAR-mediated gene expression (PPAR gamma; [4]): 3.5 x-fold
Relative activation of PPAR-mediated gene expression (PPAR gamma; [5]): 15.6 x-fold
Relative activation of PPAR-mediated gene expression (PPAR gamma; [6]): 4.3 x-fold
Inhibition of cell proliferation [2]: inhibit cell proliferation

Cc1c(C)c2c(c(C)c1O)CCC(C)(COc1ccc(CC3SC(=O)NC3=O)cc1)O2 (stereo not drawn) [Troglitazone, troglitazone, reference compound]
Inhibition relative to vehicle group (number of metastases) ([1]; 200 mg/kg oral for 42 days): −8%
Inhibition relative to vehicle group (tumor volume) ([1]; 200 mg/kg oral for 42 days): 20%
Mean tumor volume ([1]; 200 mg/kg oral for 42 days): 804 mm^3
Number of metastases ([1]; 200 mg/kg oral for 42 days): 352

Cc1oc(-c2ccccc2)nc1CCOc1ccc(CC2SC(=O)NC2=O)c2sccc12 (stereo not drawn) [BM 13.1258, 5-{4-[2-(5-Methyl-2-phenyloxazol-4-yl) -ethoxy]-benzo[b]thiophen-7-ylmethyl}-thiazolidine-2,4-dione]
Inhibition relative to vehicle group (tumor volume) ([1]; 50 mg/kg oral for 42 days): 40%
Mean tumor volume ([1]; 50 mg/kg oral for 42 days): 604 mm^3
Anti-tumor effect compared with troglitazone ([1]; SCID beige mice, Table 1): superior to that of troglitazone
Reduction of size of colon carcinoma ([1]; SCID beige mice, Table 1): effective in reducing the size of colon carcinoma
Effect on metastatic load [1]: reduce the metastatic load
Relative activation of PPAR-mediated gene expression (PPAR gamma; [3]): 28.0 x-fold
Relative activation of PPAR-mediated gene expression (PPAR gamma; [4]): 4.0 x-fold
Relative activation of PPAR-mediated gene expression (PPAR gamma; [5]): 24.4 x-fold
Relative activation of PPAR-mediated gene expression (PPAR gamma; [6]): 3.7 x-fold
Inhibition of cell proliferation [2]: inhibit cell proliferation
